Assays:
[1] = test system: abnormal prion proteins in ScN2a cells with persistent infection of scrapie; experiment: cells; type: cell-based, mouse; conditions: for IC50: Mus musculus, ScN2a, 96 h, read-out: Inhibitory effects on producing abnormal prion protein IC50; for Inhibitory effects on producing abnormal prion proteins (in words): ScN2a cells
ScN2a cells = conditions: for Concentration of inhibiting cell proliferation TC: mouse

`Cc1ccc2nc(-c3ccc(NC(=O)c4cccs4)cc3)sc2c1` [HT-042, 4-(6-methylbenzothiazol-2-yl)-N-(thio-phen-2-carbonyl)aniline] was tested, and the IC50 [1] was 10 nM and the “Concentration of inhibiting cell proliferation TC” value (ScN2a cells) was >100 µM.

`COc1ccc(/C=C/c2nc3ccccc3s2)cc1` [Compound N-455, 2-[2-(4-methoxyphenyl)-ethenyl]benzothiazole] was tested, and the IC50 [1] was 10 nM and the “Concentration of inhibiting cell proliferation TC” value (ScN2a cells) was 100 µM.

In the case of `Clc1ccc2nc(-c3ccccc3)c(Br)n2c1` [Compound N-468, 2-phenyl-3-bromo-6-chloroimidazo[1,2-a]pyridine], the IC50 [1] is reported as 1000 nM and the “Concentration of inhibiting cell proliferation TC” value (ScN2a cells) is reported as 100 µM.

`C(=C\c1cncs1)/c1nc2ccccc2o1` [BF-234] was tested, and the IC50 [1] was 40 nM and the “Concentration of inhibiting cell proliferation TC” value (ScN2a cells) was >10 µM.

For `Nc1ccc(-c2nc3cc(N)ccc3s2)cc1` [Compound N-231, 2-(4-aminophenyl)-5-aminobenzothiazole], the IC50 [1] was 10 nM and the “Concentration of inhibiting cell proliferation TC” value (ScN2a cells) was 10 µM.

In the case of `Nc1ccc(C(=O)Nc2ccc(-c3nc4cc(Cl)c(NC(=O)c5ccc(N)cc5)cc4[nH]3)cc2)cc1` [Compound N-246, 4-[6-(N′-(4-amino-benzoyl)amino)-5-chlorobenzimidazol-2-yl]-N-(4-aminobenzoyl)aniline], the IC50 [1] is reported as 1 nM, the “Inhibitory effects on producing abnormal prion proteins (in words)” value (“Inhibitory effects” below) [1] is reported as “highly inhibitory effects” and the “Concentration of inhibiting cell proliferation TC” value (ScN2a cells) is reported as 10 µM.

For `CN(C)c1ccc(/C=C/c2nc3ccc4ccccc4c3s2)cc1` [Compound N-283, 4-[2-(naphth[4,5-c]-thiazol-2-yl)ethenyl]-N,N-dimethylbenzenamine], the IC50 [1] was 500 nM and the “Concentration of inhibiting cell proliferation TC” value (ScN2a cells) was 50 µM.

For `Nc1ccc(-c2nc3cc(Oc4ccc(Oc5ccc6[nH]c(-c7ccc(N)cc7)nc6c5)cc4)ccc3[nH]2)cc1` [Compound N-244], the IC50 [1] was 10 nM and the “Concentration of inhibiting cell proliferation TC” value (ScN2a cells) was >10 µM.

For `CN(C)c1ccc(/C=C/c2nc3cc([N+](=O)[O-])ccc3o2)cc1` [BF-135, 2-(4-dimethylamino) styryl-5-nitrobenzoxazole], the IC50 [1] was 1 nM, the “Inhibitory effects” value [1] was “highly inhibitory effects” and the “TC and safety concentration margin (in words)” value (ScN2a cells) was “higher TCs, therefore higher safety concentration margins”. The “Concentration of inhibiting cell proliferation TC” value (ScN2a cells) was 100 µM.

With `Cc1cc(N)cc2nc(-c3ccc(N)c(Cl)c3)[nH]c12` [Compound N-240, 2-(4-amino-3-chloro-phenyl)-5-amino-7-methylbenzimidazole] the IC50 [1] was 100 nM and the “Concentration of inhibiting cell proliferation TC” value (ScN2a cells) was 10 µM.

`Clc1ccc2nc(-c3ccc(Br)s3)cn2c1` [Compound N-472, 2-(5-bromo-2-thienyl)-6-chloroimidazo[1,2-a]pyridine] was tested, and the IC50 [1] was 10 nM and the “Concentration of inhibiting cell proliferation TC” value (ScN2a cells) was 100 µM.

With `Cc1cc2[nH]c(-c3ccc(N)cc3)nc2cc1N` [Compound N-242, 2-(4-aminophenyl)-5-amino-6-methyl-benzimidazole] the IC50 [1] was 100 nM and the “Concentration of inhibiting cell proliferation TC” value (ScN2a cells) was 10 µM.

`Clc1ccc2nc(-c3cccs3)cn2c1` [Compound N-471, 2-(2-thienyl)-6-chloro imidazo[1,2-a]pyridine] was tested, and the IC50 [1] was 1000 nM and the “Concentration of inhibiting cell proliferation TC” value (ScN2a cells) was “≧100 μM”.

With `C/C(=C\c1ccc(N)cc1)c1nc2ccccc2[nH]1` [Compound N-442, 4-[2-(2-benzimidazolyl)-2-methylethenyl]benzenamine] the IC50 [1] was 100 nM and the “Concentration of inhibiting cell proliferation TC” value (ScN2a cells) was 100 µM.

With `Cc1ccc2nc(-c3sc(-c4ccccc4)nc3C)cn2c1` [Compound N-473, 2-(2-phenyl-4-methylthiazol-5-yl)-6-methyl-imidazo[1,2-a]pyridine] the IC50 [1] was 1000 nM and the “Concentration of inhibiting cell proliferation TC” value (ScN2a cells) was 100 µM.

`Cc1cccc(/C=C/c2nc3cc(C)ccc3s2)c1` [Compound N-439, 2-[2-(3-methylphenyl)-ethenyl]-5-methyl-benzothiazole] was tested, and the IC50 [1] was 10 nM and the “Concentration of inhibiting cell proliferation TC” value (ScN2a cells) was 100 µM.

In the case of `Nc1ccc(C(=O)Nc2ccc3nc(-c4cc(Cl)c(NC(=O)c5ccc(N)cc5)c(Cl)c4)[nH]c3c2Cl)cc1` [Compound N-233, 4-[6-(N′-(4-amino-benzoyl)amino)-7-chlorobenzimidazol-2-yl]-N-(4-aminobenzoyl)-2,6-dichloroaniline], the IC50 [1] is reported as 100 nM and the “Concentration of inhibiting cell proliferation TC” value (ScN2a cells) is reported as 10 µM.

For `Clc1ccc2nc(-c3cc(-c4ccccc4)no3)cn2c1` [Compound N-465, 2-(3-phenylisoxazol-5-yl)-6-chloroimidazo [1,2-a]pyridine], the IC50 [1] was 10 nM and the “Concentration of inhibiting cell proliferation TC” value (ScN2a cells) was 100 µM.

For `Nc1ccc(-c2nc3ccc(N)cc3o2)cc1` [Compound N-226, 2-(4-aminophenyl)-6-aminobenzoxazole], the IC50 [1] was 100 nM and the “Concentration of inhibiting cell proliferation TC” value (ScN2a cells) was >10 µM.

`CCN(CC)c1ccc2cc(-c3nc4ccccc4[nH]3)c(=O)oc2c1` [SA-272, 2-(7-diethylamino-coumarin-3-yl)-benzimidazole] was tested, and the IC50 [1] was 1000 nM and the “Concentration of inhibiting cell proliferation TC” value (ScN2a cells) was 100 µM.

For `Clc1ccc2nc(-c3ccccc3)cn2c1` [Compound N-464, 2-phenyl-6-chloro-imidazo[1,2-a]pyridine], the IC50 [1] was 100 nM and the “Concentration of inhibiting cell proliferation TC” value (ScN2a cells) was 100 µM.

In the case of `Cc1ccc2nc(-c3ccc(NC(=O)c4ccc(Cl)cc4)cc3)sc2c1` [HT-041, 4-(6-methylbenzothiazol-2-yl)-N-(4-chloro-benzoyl)aniline], the IC50 [1] is reported as 10 nM and the “Concentration of inhibiting cell proliferation TC” value (ScN2a cells) is reported as >10 µM.

`Nc1ccc(-c2nc3ccc(N)cc3s2)cc1` [Compound N-224, 2-(4-aminophenyl)-6-aminobenzothiazole] was tested, and the IC50 [1] was 1 nM, the “Inhibitory effects” value [1] was “highly inhibitory effects” and the “Concentration of inhibiting cell proliferation TC” value (ScN2a cells) was >10 µM.

With `Nc1ccc(-c2nc3cc(Cc4ccc5oc(-c6ccc(N)cc6)nc5c4)ccc3o2)cc1` [Compound N-221] the IC50 [1] was 1 nM, the “Inhibitory effects” value [1] was “highly inhibitory effects” and the “Concentration of inhibiting cell proliferation TC” value (ScN2a cells) was >10 µM.

With `Cc1ccc2nc(-c3ccc(NC(=O)c4ccc(Cl)cc4Cl)cc3)sc2c1` [HT-040, 4-(6-methylbenzothiazol-2-yl)-N-(2,4-dichlorobenzoyl)aniline] the IC50 [1] was 10 nM and the “Concentration of inhibiting cell proliferation TC” value (ScN2a cells) was >10 µM.

For `Clc1ccc(/C=C/c2nc3ccccc3s2)c(Cl)c1` [Compound N-452, 2-[2-(2,4-dichloro-phenyl)ethenyl]-benzothiazole], the IC50 [1] was 100 nM and the “Concentration of inhibiting cell proliferation TC” value (ScN2a cells) was 100 µM.

`Nc1ccc(-c2nc3cc(N)ccc3s2)c(O)c1` [Compound N-232, 2-(4-amino-2-hydroxy-phenyl)-5-amino-benzothiazole] was tested, and the IC50 [1] was 1 nM, the “Inhibitory effects” value [1] was “highly inhibitory effects” and the “Concentration of inhibiting cell proliferation TC” value (ScN2a cells) was 10 µM.

In the case of `Nc1ccc(C(=O)Nc2ccc(-c3nc4cc(N)ccc4[nH]3)cc2)cc1` [Compound N-243, 4-(5-aminobenzimidazol-2-yl)-N-(4-amino-benzoyl)aniline], the IC50 [1] is reported as 1 nM, the “Inhibitory effects” value [1] is reported as “highly inhibitory effects” and the “Concentration of inhibiting cell proliferation TC” value (ScN2a cells) is reported as >10 µM.

In the case of `Nc1ccc(-c2nc3ccc(N)cc3[nH]2)cc1` [Compound N-245, 2-(4-aminophenyl)-5-aminobenzimidazole], the IC50 [1] is reported as 100 nM and the “Concentration of inhibiting cell proliferation TC” value (ScN2a cells) is reported as 10 µM.

For `Nc1ccc(C(=O)Nc2ccc(-c3nc4cc(N)ccc4o3)cc2)cc1` [Compound N-220, 4-(5-aminobenzoxazol-2-yl)-N-(4-amino-benzoyl)aniline], the IC50 [1] was 1 nM, the “Inhibitory effects” value [1] was “highly inhibitory effects” and the “Concentration of inhibiting cell proliferation TC” value (ScN2a cells) was 10 µM.

In the case of `Cc1ccn2cc(-c3ccccc3)nc2c1` [Compound N-463, 2-phenyl-7-methyl-imidazo[1,2-a]pyridine], the IC50 [1] is reported as 100 nM and the “Concentration of inhibiting cell proliferation TC” value (ScN2a cells) is reported as 100 µM.

With `Nc1ccc(-c2nc3ccc(N)c(Cl)c3[nH]2)cc1` [Compound N-234, 2-(4-aminophenyl)-7-chloro-6-amino-benzimidazole] the IC50 [1] was 100 nM and the “Concentration of inhibiting cell proliferation TC” value (ScN2a cells) was >10 µM.

For `Nc1ccc(-c2cn3ccccc3n2)cc1` [Compound N-461, 2-(4-aminophenyl)-imidazo[1,2-a]pyridine], the IC50 [1] was 100 nM and the “Concentration of inhibiting cell proliferation TC” value (ScN2a cells) was >10 µM.

In the case of `CN(C)c1ccc2cc(-c3nc4cc(F)ccc4o3)cnc2c1` [BF-161, 5-fluoro-2-(7-dimethyl-aminoquinolin-3-yl)-benzoxazole], the IC50 [1] is reported as 10 nM and the “Concentration of inhibiting cell proliferation TC” value (ScN2a cells) is reported as 100 µM.

With `Nc1ccc(-c2nc3cc(N)ccc3o2)cc1` [Compound N-225, 2-(4-aminophenyl)-5-aminobenzoxazole] the IC50 [1] was 100 nM and the “Concentration of inhibiting cell proliferation TC” value (ScN2a cells) was >10 µM.

`Cc1ccn2c(Br)c(-c3ccccc3)nc2c1` [Compound N-467, 2-phenyl-3-bromo-7-methylimidazo[1,2-a]pyridine] was tested, and the IC50 [1] was 1000 nM and the “Concentration of inhibiting cell proliferation TC” value (ScN2a cells) was 100 µM.

With `Ic1ccc2nc(-c3ccccc3)cn2c1` [Compound N-469, 2-phenyl-6-iodo-imidazo[1,2-a]pyridine] the IC50 [1] was 100 nM and the “Concentration of inhibiting cell proliferation TC” value (ScN2a cells) was “≧100 μM”.

Reference: patent publication US20050260126A1 (priority 2002, published 2005)
